Test results as given in ChEMBL document CHEMBL1134195, “Synthesis of analogues of the O-beta-D-ribofuranosyl nucleoside moiety of liposidomycins. Part 2: role of the hydroxyl groups upon the inhibition of MraY” (Bioorg Med Chem Lett, 2001).

Test: Inhibitory activity against translocase (Mra Y) obtained from bacteria.

IC50 [µM] | SMILES
10 | NC[C@H]1O[C@@H](OC[C@@H]2C[C@@H](O)[C@H](n3ccc(=O)[nH]c3=O)O2)[C@H](O)[C@@H]1O
115 | NC[C@H]1O[C@@H](OC[C@H]2O[C@@H](n3ccc(=O)[nH]c3=O)[C@H](O)[C@@H]2O)C[C@@H]1O
5 | NC[C@H]1O[C@@H](O[C@@H](CO)[C@H]2O[C@@H](n3ccc(=O)[nH]c3=O)[C@H](O)[C@@H]2O)[C@H](O)[C@@H]1O
> 1000 | NC[C@@H]1C[C@@H](O)[C@H](OC[C@H]2O[C@@H](n3ccc(=O)[nH]c3=O)[C@H](O)[C@@H]2O)O1
80 | NC[C@H]1O[C@@H](OC[C@H]2O[C@@H](n3ccc(=O)[nH]c3=O)C[C@@H]2O)[C@H](O)[C@@H]1O
50 | NC[C@H]1O[C@@H](OC[C@H]2O[C@@H](n3ccc(=O)[nH]c3=O)[C@H](O)[C@@H]2O)[C@H](O)[C@@H]1O
120 | NC[C@H]1O[C@@H](OC[C@@H]2CC[C@H](n3ccc(=O)[nH]c3=O)O2)[C@H](O)[C@@H]1O
